Experimental data published in US5466671A, “Apidaecin-type peptide antibiotics with improved activities and/or different antibacterial spectrum” (priority 1994, dated 1995).
Residues, ends and D or L forms follow the SMILES beside them. No end group written: not given here.

Columns and labels:
[1] = system: Agrobacterium tumefaciens; assay: Inhibition zone assay (agar plate); assay type: cell-based; settings: agar plate, 50 nanomoles/well, 3 mm wells
[2] = system: Escherichia coli (11775 Apid R); assay type: cell-based; settings: agar plate, 50 nanomoles/well, 3 mm wells
Campylobacter jejuni = assay: Inhibition zone assay (agar plate); assay type: cell-based; settings: 50 nanomoles/well, 3 mm wells
S. typhimurium = assay: Minimal inhibitory concentration (liquid culture); settings: inoculum 8 × 10^6 CFU/ml; a-b = highest concentration with growth - lowest without growth
Salmonella typhimurium = assay: Inhibition zone assay (agar plate); assay type: cell-based; settings: agar plate, 50 nanomoles/well, 3 mm wells
[3] = system: Acinetobacter calcoaceticus; assay: Inhibition zone assay (agar plate); assay type: cell-based; settings: agar plate, 50 nanomoles/well, 3 mm wells
Morganella morganii = assay: Inhibition zone assay (agar plate); assay type: cell-based; settings: 50 nanomoles/well, 3 mm wells
E. coli 25922 = assay: Minimal inhibitory concentration (liquid culture); settings: inoculum 1100 CFU/ml; a-b = highest concentration with growth - lowest without growth
Haemophilus influenzae = assay: Inhibition zone assay (agar plate); assay type: cell-based; settings: 50 nanomoles/well, 3 mm wells
Enterobacter cloacae = assay: Inhibition zone assay (agar plate); assay type: cell-based; settings: agar plate, 50 nanomoles/well, 3 mm wells
E. coli 11775 = assay: Minimal inhibitory concentration (liquid culture); settings: a-b = highest concentration with growth - lowest without growth
[4] = system: Escherichia coli (ATCC11775); assay: Inhibition zone assay (agar plate); assay type: cell-based; settings: agar plate, 50 nanomoles/well, 3 mm wells
Rhizobium meliloti = assay: Inhibition zone assay (agar plate); assay type: cell-based; settings: 50 nanomoles/well, 3 mm wells
Y. enterocolitica = assay: Minimal inhibitory concentration (liquid culture); settings: inoculum 5000 CFU/ml; a-b = highest concentration with growth - lowest without growth
Erwinia amylovora = assay: Inhibition zone assay (agar plate); assay type: cell-based; settings: agar plate, 50 nanomoles/well, 3 mm wells
Klebsiella pneumoniae = assay: Inhibition zone assay (agar plate); assay type: cell-based; settings: agar plate, 50 nanomoles/well, 3 mm wells
Escherichia coli (K514) = assay type: cell-based; settings: agar plate, 50 nanomoles/well, 3 mm wells
M. morganii = assay: Minimal inhibitory concentration (liquid culture); settings: inoculum 400 CFU/ml; a-b = highest concentration with growth - lowest without growth
Legionella pneumophila = assay type: cell-based; settings: agar plate, 50 nanomoles/well, 3 mm wells
A. calcoaceticus = assay: Minimal inhibitory concentration (liquid culture); settings: inoculum 16 × 10^6 CFU/ml; a-b = highest concentration with growth - lowest without growth
Pseudomonas syringae = assay: Inhibition zone assay (agar plate); assay type: cell-based; settings: agar plate, 50 nanomoles/well, 3 mm wells
E. coli 23802 = assay: Minimal inhibitory concentration (liquid culture); settings: inoculum 5000 CFU/ml; a-b = highest concentration with growth - lowest without growth
E. coli Apid^R = assay: Minimal inhibitory concentration (liquid culture); assay type: cell-based; settings: a-b = highest concentration with growth - lowest without growth
From the text: For details see `Experimental Procedures`.

Francisella tularensis = assay type: cell-based; settings: agar plate, 50 nanomoles/well, 3 mm wells
Yersinia enterocolitica = assay: Inhibition zone assay (agar plate); assay type: cell-based; settings: 50 nanomoles/well, 3 mm wells

Molecule	inhibition zone diameter (number of plus signs) [1]	minimal inhibitory concentration (MIC) (S. typhimurium)	inhibition zone diameter (number of plus signs) (Salmonella typhimurium)	minimal inhibitory concentration (MIC) (E. coli 25922)	inhibition zone diameter (number of plus signs) (Haemophilus influenzae)	inhibition zone diameter (number of plus signs) (Enterobacter cloacae)	minimal inhibitory concentration (MIC) (E. coli 11775; inoculum 16 × 10^6 CFU/ml)	minimal inhibitory concentration (MIC) (E. coli 11775; inoculum 1200 CFU/ml)	inhibition zone diameter (number of plus signs) [4]	inhibition zone diameter (number of plus signs) (Rhizobium meliloti)	minimal inhibitory concentration (MIC) (Y. enterocolitica)	inhibition zone diameter (number of plus signs) (Erwinia amylovora)	inhibition zone diameter (number of plus signs) (Klebsiella pneumoniae)	inhibition zone diameter (number of plus signs) (Escherichia coli (K514))	minimal inhibitory concentration (MIC) (M. morganii)	minimal inhibitory concentration (MIC) (A. calcoaceticus)	inhibition zone diameter (number of plus signs) (Pseudomonas syringae)	minimal inhibitory concentration (MIC) (E. coli 23802)	minimal inhibitory concentration (MIC) (E. coli Apid^R; inoculum 12 × 10^6 CFU/ml)	minimal inhibitory concentration (MIC) (E. coli Apid^R; inoculum 1000 CFU/ml)	other results
CC[C@H](C)[C@H](NC(=O)[C@@H]1CCCN1C(=O)[C@H](C)NC(=O)[C@@H]1CCCN1C(=O)[C@H](CCCNC(=N)N)NC(=O)[C@@H]1CCCN1C(=O)[C@H](CCCNC(=N)N)NC(=O)[C@H](CC(N)=O)NC(=O)[C@@H]1CCCN1C(=O)[C@H](CCCCN)NC(=O)CN)C(=O)N[C@@H](CCC(N)=O)C(=O)N1CCC[C@H]1C(=O)N[C@@H](CCCNC(=N)N)C(=O)N1CCC[C@H]1C(=O)N1CCC[C@H]1C(=O)N[C@@H](Cc1c[nH]cn1)C(=O)N1CCC[C@H]1C(=O)N[C@@H](CCCNC(=N)N)C(=O)N[C@@H](CC(C)C)C(=O)O [Cd 1+, Gly--Lys--Pro--Asn--Arg--Pro--Arg--Pro--Ala--Pro--Ile--Gln--Pro--Arg--Pro--Pro--His--Pro--Arg--Leu] (H-GKPNRPRPAPIQPRPPHPRL-OH)	++++ ((++++) 15-19 mm)	10 to 20 µg/mL	++ ((++) 7-9 mm)	10 to 20 µg/mL	++++ ((++++) 15-19 mm)	+++ ((+++) 10-14 mm)	> 20 µg/mL	10 to 20 µg/mL	++ ((++) 7-9 mm)	++++ ((++++) 15-19 mm)	20 to 40 µg/mL	++ ((++) 7-9 mm)	++ ((++) 7-9 mm)	++ ((++) 7-9 mm)	10 to 20 µg/mL	> 20 µg/mL	++++ ((++++) 15-19 mm)	10 to 20 µg/mL			inhibition zone diameter (number of plus signs) [2]: ++ ((++) 7-9 mm); inhibition zone diameter (number of plus signs) (Campylobacter jejuni): +++ ((+++) 10-14 mm); inhibition zone diameter (number of plus signs) [3]: ++ ((++) 7-9 mm); inhibition zone diameter (number of plus signs) (Morganella morganii): ++ ((++) 7-9 mm); inhibition zone diameter (number of plus signs) (Legionella pneumophila): ++ ((++) 7-9 mm)
CC(C)C[C@H](NC(=O)[C@H](CCCNC(=N)N)NC(=O)[C@@H]1CCCN1C(=O)[C@H](Cc1c[nH]cn1)NC(=O)[C@@H]1CCCN1C(=O)[C@@H]1CCCN1C(=O)[C@H](CCCNC(=N)N)NC(=O)[C@@H]1CCCN1C(=O)[C@H](C)NC(=O)[C@@H]1CCCN1C(=O)[C@@H](NC(=O)[C@H](Cc1ccc(O)cc1)NC(=O)[C@@H](NC(=O)[C@@H]1CCCN1C(=O)[C@H](CCCNC(=N)N)NC(=O)[C@@H](N)CC(N)=O)[C@@H](C)O)C(C)C)C(=O)O [Ck A, Asn--Arg--Pro--Thr--Tyr--Val--Pro--Ala--Pro--Arg--Pro--Pro--His--Pro--Arg--Leu] (H-NRPTYVPAPRPPHPRL-OH)	++++ ((++++) 15-19 mm)	1 to 5 µg/mL	+++ ((+++) 10-14 mm)	1 to 5 µg/mL	++ ((++) 7-9 mm)	++ ((++) 7-9 mm)	1 to 5 µg/mL	0.1 to 0.5 µg/mL	+++ ((+++) 10-14 mm)	++++ ((++++) 15-19 mm)	1 to 5 µg/mL	+++ ((+++) 10-14 mm)	++ ((++) 7-9 mm)	++ ((++) 7-9 mm)	20 to 40 µg/mL	> 20 µg/mL	+++ ((+++) 10-14 mm)	> 40 µg/mL	> 40 µg/mL	> 40 µg/mL	inhibition zone diameter (number of plus signs) (Francisella tularensis): + ((+) 5-6 mm); inhibition zone diameter (number of plus signs) (Yersinia enterocolitica): +++ ((+++) 10-14 mm)
NRPTYVPPPRPPHPRL [Ck P]	++++ ((++++) 15-19 mm)	1 to 5 µg/mL	++++ ((++++) 15-19 mm)	0.5 to 1 µg/mL	++ ((++) 7-9 mm)	+++ ((+++) 10-14 mm)	1 to 5 µg/mL	0.1 to 0.5 µg/mL	+++ ((+++) 10-14 mm)	+++++ ((+++++) 20 or more min)	1 to 5 µg/mL	+++ ((+++) 10-14 mm)	++ ((++) 7-9 mm)	++ ((++) 7-9 mm)	> 40 µg/mL	> 20 µg/mL	++++ ((++++) 15-19 mm)	20 to 40 µg/mL	> 40 µg/mL	> 40 µg/mL	inhibition zone diameter (number of plus signs) (Francisella tularensis): ++ ((++) 7-9 mm); inhibition zone diameter (number of plus signs) (Yersinia enterocolitica): +++ ((+++) 10-14 mm)
